Test results taken from patent US9216220B2, “Compositions and methods for thermo-sensitive nanoparticles and magnetic nanoparticles” (BOARD OF REGENTS, THE UNIVERSITY OF TEXAS SYSTEM, priority 2008, dated 2015).

Test system: Prostate cancer cells (i.e., JHU31)
Assay: Cancer cell viability, MTS assay, DOX-loaded nanoparticles
Format: cell-based
Conditions: 37° C., 24 hours; nanoparticles 500 μg/ml
Experimental: In order to investigate the pharmacological activity of the in vitro released DOX from the functionalized copolymer magnetic nanoparticles, cancer cell viability was conducted using MTS assays (Promega) according to the manufacturer's instruction. Prostate cancer cells (i.e., JHU31) were cultured to confluence, harvested by trypsinization, and dispersed in RPMI supplemented with 10% serum and 1% penicillin-streptomycin. Cells were seeded at a density of approximately 10,000 cells/well in 24-well plates for 24 hours at 37° C., and then were then incubated with nanoparticles, DOX-loaded nanoparticles, and free DOX. The concentration of functionalized copolymer magnetic nanoparticles and DOX-loaded functionalized copolymer magnetic nanoparticles was 500 μg/ml. This nanoparticle concentration was selected according to drug release results from the nanoparticles indicated above and the optimal inhibition dose of DOX on prostate cancer cell growth studies. The prostate cancer cells were incubated with each group at 37° C., 41° C., and temperature cycles between 37° C. and 41° C. (one hour at each temperature for one cycle) for 24 hours.

COc1cccc2c1C(=O)c1c(O)c3c(c(O)c1C2=O)C[C@@](O)(C(=O)CO)C[C@@H]3O[C@H]1C[C@H](N)[C@H](O)[C@H](C)O1 [DOX, doxorubicin]
cell viability in comparison to the control: 20%
